Tests used:
[1] = tested on: patients with a primary diagnosis of PTSD; test: Methylone PTSD case series with long-term follow-up (Example 5): CGI-I and safety; format: in vivo, human
Text: The patients were not given structured psychotherapy in conjunction with methylone treatment, which differs from recent studies of MDMA that emphasize the importance of a manualized psychedelic-assisted psychotherapy model.
No protectedhealth information was disclosed, and no consent was obtained from patients for use of their archival data. Case narratives were systematically compiled from data collected as part of routine clinical work. Diagnoses were confirmed by an experienced clinician using semi-structured interviews. Baseline symptom severity was evaluated using the Clinical Global Impressions Scale-Severity ([…]). Symptom improvement was evaluated using the Clinical Global Impressions Scale-Improvement (CGI-I) following dosing. […] Because these case narratives were examined retrospectively from routine clinical care records, and not gathered prospectively in a research study, more specific validated rating scales for assessing PTSD symptoms were not available. Additionally, follow-up varied, with the length of follow-up ranging from one week (Case 2) to 15 years (Case 16).
Dosing summary: Methylone was administered orally. Other medications were not changed during methylone treatment. […] In several cases, treatment was continued and, in some cases, the dose was further escalated in later sessions (see Table 5). Booster doses were included for 19 patients in one or more of the sessions. Starting doses were between 100 and 270 mg, and these as well as booster doses were selected based on clinical judgement.

[2] = molecular target: dopamine (DA) transporter (Homo sapiens, UniProt Q01959); test: Radioligand binding, [3H] WIN35428
Sequence of dopamine (DA) transporter (Q01959 whole entry): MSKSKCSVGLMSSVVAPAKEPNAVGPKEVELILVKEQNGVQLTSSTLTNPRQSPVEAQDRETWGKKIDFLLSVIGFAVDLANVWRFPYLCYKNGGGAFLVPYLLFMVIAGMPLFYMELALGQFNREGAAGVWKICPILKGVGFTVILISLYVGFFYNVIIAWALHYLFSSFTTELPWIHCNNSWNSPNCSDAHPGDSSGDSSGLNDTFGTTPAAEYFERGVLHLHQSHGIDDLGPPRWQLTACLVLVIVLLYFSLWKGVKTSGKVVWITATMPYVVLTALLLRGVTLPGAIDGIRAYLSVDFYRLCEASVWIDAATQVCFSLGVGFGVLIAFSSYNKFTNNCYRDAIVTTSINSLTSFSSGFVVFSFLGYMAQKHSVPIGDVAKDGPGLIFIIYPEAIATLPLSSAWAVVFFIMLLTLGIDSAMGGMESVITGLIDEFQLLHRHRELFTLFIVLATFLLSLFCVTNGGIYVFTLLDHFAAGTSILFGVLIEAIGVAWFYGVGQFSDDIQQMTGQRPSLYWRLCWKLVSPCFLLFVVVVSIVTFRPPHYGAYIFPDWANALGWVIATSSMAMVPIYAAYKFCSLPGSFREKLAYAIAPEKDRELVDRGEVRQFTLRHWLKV

[3] = molecular target: norepinephrine (NE) transporter (Homo sapiens, UniProt P23975); test: Radioligand binding, [3H] nisoxetine
Sequence of norepinephrine (NE) transporter (P23975 whole entry): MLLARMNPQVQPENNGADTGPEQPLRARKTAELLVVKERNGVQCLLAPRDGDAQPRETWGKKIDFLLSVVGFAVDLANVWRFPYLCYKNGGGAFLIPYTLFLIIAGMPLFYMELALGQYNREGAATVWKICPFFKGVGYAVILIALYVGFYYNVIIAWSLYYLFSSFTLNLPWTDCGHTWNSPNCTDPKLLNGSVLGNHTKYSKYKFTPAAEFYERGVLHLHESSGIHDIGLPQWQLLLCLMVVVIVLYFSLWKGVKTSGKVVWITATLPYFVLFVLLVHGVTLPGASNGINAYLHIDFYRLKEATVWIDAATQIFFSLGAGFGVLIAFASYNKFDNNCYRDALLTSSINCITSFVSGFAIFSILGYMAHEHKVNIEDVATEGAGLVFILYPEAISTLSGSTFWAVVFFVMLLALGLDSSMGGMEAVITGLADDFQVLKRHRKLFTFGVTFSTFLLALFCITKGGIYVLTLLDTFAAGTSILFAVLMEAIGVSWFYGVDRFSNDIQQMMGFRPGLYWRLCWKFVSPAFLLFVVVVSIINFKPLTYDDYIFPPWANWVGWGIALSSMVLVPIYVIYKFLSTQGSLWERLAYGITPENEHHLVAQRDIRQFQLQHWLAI

mice = test: Fear extinction paradigm, mouse model of PTSD; format: in vivo
Text: (FIG. 9A) Schematic of experimental design. A single CS-US (tone-shock) pairing on day 1 was followed by 6 CS presentations in a novel context (context B). […] On day 3, the time spent freezing to the CS was quantified. […] (FIG. 9C) No locomotor changes were observed on day 3 (t(26)=1.073, p>0.05). Data are mean +/− SEM.
FIGS. 10A-10B: MBDB improves fear extinction in a mouse model of PTSD. A single CS-US (tone-shock) pairing on day 1 was followed by 6 conditioned stimulus (CS) presentations in a novel context (context B). MBDB or saline vehicle was injected 30 min prior to extinction training on day 2. The time spent freezing to the CS was quantified on […]. […] Data are mean +/− SEM. N=10 for MBDB group (5 mg/kg, IP) and N=16 for saline control group. **p<0.01 vs. vehicle control group.
Effective PTSD treatments facilitate the disassociation between a traumatic memory and the patient's fear response, making cues for the traumatic memory evoke less of a fear response. This is modeled in the mouse fear extinction paradigm (see FIG. 9A) which takes place over 3 days. On day 1 (fear conditioning), mice are trained to acquire a “traumatic memory,” namely associating the conditioned stimulus (CS, tone) to the unconditioned stimulus (US, foot shock). On day 2 (extinction training), they are trained to forget the traumatic memory association by presenting the CS 6 times (with no US) in a novel environment. On day 3 (extinction recall), the mice are “asked” if that tone (CS) still elicits a fearful response, as measured by the time spent freezing when the tone is presented. Less time freezing means better extinction recall. Drugs that improve extinction recall reduce freezing time on day 3, and, therefore, show potential as a PTSD treatment.

rats = test: Open field test (OFT); format: in vivo, rat; details: single methylone dose 5 or 15 mg/kg IP, 30 minutes before testing
Description: Data are mean +/− SEM. N=6 per group. * p<0.05; **p<0.01 vs. vehicle control group.
Method: Consecutive beam breaks and/or video-tracking of time spent in the center versus periphery of the open field are measured. Also measured are parameters such as distance traveled and ambulatory activity (horizontal and vertical) for the duration of the test session.
The open field test (OFT) capitalizes on a rodent's innate fear of open spaces to assess anxiety-like behavior. More time spent in the center of an open field reflects an anxiolytic (anti-anxiety) effect.

168 GPCRs = test: DiscoverX PathHunter β-arrestin GPCR screen, agonist and antagonist mode; format: cell-based; details: 1 and 10 micromolar
Description: For agonist determination, cells were incubated with sample to induce response. […] Vehicle concentration was 1%.
Vehicle concentration was 1%.

[4] = molecular target: T1, serotonin transporter (SERT) (Rattus norvegicus, UniProt P31652); test: [3H]5HT uptake saturation in rat brain synaptosomes with or without methylone; format: biochemical
T1 construct: from tissue; host or cells: rat brain synaptosomes
T1 sequence (P31652 whole entry): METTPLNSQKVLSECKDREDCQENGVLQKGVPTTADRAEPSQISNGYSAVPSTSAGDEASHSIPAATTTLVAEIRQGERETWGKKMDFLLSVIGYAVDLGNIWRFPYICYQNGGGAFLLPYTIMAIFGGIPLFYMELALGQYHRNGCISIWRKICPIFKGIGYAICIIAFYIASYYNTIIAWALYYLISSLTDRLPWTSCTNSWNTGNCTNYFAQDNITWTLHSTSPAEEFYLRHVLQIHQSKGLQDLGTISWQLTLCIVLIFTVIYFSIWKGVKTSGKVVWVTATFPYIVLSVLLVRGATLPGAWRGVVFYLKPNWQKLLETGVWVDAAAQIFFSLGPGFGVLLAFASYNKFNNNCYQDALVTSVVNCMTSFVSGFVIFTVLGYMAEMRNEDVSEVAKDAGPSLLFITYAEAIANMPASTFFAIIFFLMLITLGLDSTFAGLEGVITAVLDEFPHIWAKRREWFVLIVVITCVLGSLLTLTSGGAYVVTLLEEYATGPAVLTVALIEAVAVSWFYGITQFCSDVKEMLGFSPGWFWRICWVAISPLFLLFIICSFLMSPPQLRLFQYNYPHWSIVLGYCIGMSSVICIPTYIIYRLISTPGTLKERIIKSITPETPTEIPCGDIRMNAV

[5] = molecular target: vesicular monoamine transporter 2 (VMAT2) (Homo sapiens, UniProt Q05940); details: cited from earlier work
Sequence of vesicular monoamine transporter 2 (VMAT2) (Q05940 whole entry, species assumed): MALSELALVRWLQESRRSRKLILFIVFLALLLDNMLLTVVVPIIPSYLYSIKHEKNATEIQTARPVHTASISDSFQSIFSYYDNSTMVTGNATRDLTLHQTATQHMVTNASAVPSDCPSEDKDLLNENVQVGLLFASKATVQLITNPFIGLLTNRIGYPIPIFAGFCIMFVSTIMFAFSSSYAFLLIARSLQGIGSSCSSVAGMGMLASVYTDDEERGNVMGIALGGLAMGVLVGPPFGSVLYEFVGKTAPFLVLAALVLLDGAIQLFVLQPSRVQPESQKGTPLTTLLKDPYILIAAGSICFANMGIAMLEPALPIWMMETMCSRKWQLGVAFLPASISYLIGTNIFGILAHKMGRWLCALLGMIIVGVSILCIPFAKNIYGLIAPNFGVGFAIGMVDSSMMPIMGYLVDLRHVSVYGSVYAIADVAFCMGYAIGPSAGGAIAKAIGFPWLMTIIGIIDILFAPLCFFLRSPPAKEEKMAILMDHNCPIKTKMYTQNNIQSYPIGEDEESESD

[6] = cited from earlier work
drug users / humans = details: methylone 50 mg in humans (Poyatos 2022); cited from earlier work
[7] = rats, intraperitoneal administration

## CNC(C)C(=O)c1ccc2c(c1)OCO2 (stereo not shown) [methylone, 3,4-methylenedioxy-N-methylcathinone]
[1]; 21 PTSD patients
  patients achieving CGI-I much improved or very much improved: 81%
  tolerability: generally well tolerated
[1]; durability captured for 17 of 21 patients
  patients reporting a durable effect: 16
[1]; in three of the 21 patients, none severe
  total adverse events noted: four
[1]; in vivo
  patients with durable effect >six months: 11
[1]; of 21 PTSD patients
  patients achieving a CGI-I of 1 or 2: 17
[1]; patients who received only a single dose of methylone (n=9)
  patients achieving CGI-I scores of 1 or 2: 89%
[1]; patients with multiple methylone dosing sessions (n=12)
  patients with initial improvement after the initial session: 83%
[2]
  binding at the DA transporter: confirmed methylone binding
[3]
  binding at the NE transporter: confirmed methylone binding
mice; methylone 30 mg/kg IP 30 min prior to extinction training
  enhancement of fear extinction recall compared to saline controls (reduced freezing on day 3): ~60%
mice; methylone 30 mg/kg IP, day 3
  locomotion during the testing session: no differences between groups
rats
  time spent in the center of the open field compared to vehicle: significantly increases
168 GPCRs
  agonist or antagonist activity (criteria: >30% activity, >50% inhibition): did not meet criteria for agonist or antagonist activity
[4]
  type of interaction at the SERT: competitive
[4]; in the presence of methylone
  Bmax of [3H]5HT uptake: no decrease
  Kd of [3H]5HT uptake: right shifted
[5]
  affinity for VMAT2 lower than that of MDMA: about 13 ×
[6]; rat, in vivo
  half-life shorter than MDMA: > 50%
[6]; [7]
  half-life: 1 to 2 h
  time of peak brain and serum concentration: 15 to 30 min
Drug users / humans
  side effects: no detectable side effects

From patent US20250221957A1, “PS[…] AND THEIR USE FOR TREATING […] AND NE[…] DISORDERS” (Transcend Therapeutics, Inc., priority 2021, published 2025)
